# According to patent publication US10654808B2, “Tyrosine kinase inhibitor and pharmaceutical composition comprising same” (GUANGDONG RAYNOVENT BIOTECH CO., LTD., priority 2015, dated 2020):
# Key:
# Assay type in all cases: biochemical
# PDGFRB = molecular target: T1, PDGFRB (Homo sapiens, UniProt P09619); assay: Z'-LYTE in vitro enzyme activity assay, PDGFRB; details: 100 μM ATP, 60 minutes, room temperature; read-out: IC50 detected by Z'-LYTE, PDGFRB
# T1 construct: purchased Millipore
# Experimental: (§1) The enzyme activity was measured by Z′-LYTE™ Detection Kinase Assay. The IC50 value of the compounds was used as an index to evaluate the inhibitory effect of the compounds on VEGFR2, FGFR1 and PDGFRB.
# (§2) Recombinant human VEGFR2 and FGFR1 proteases were purchased from Life technology, PDGFRB Protease was purchased from Millipore.
# (§3) Z-LYTE™ Kit Tyr1 and Tyr4 were purchased from Life technology. Multi-microplate reader, Envision (PerkinElmer) read board was used.
# (§4) The test compounds were diluted 3 times with a concentration gradient, the final concentration was from 10 μM to 0.17 nM with a total of 11 concentrations, and each concentration had two parallel holes; the content of DMSO in the assay was 1%.
# (§5) 40 nM PDGFRB protein kinase, 2 μM Tyr4 peptide, 100 μM ATP, 50 mM HEPES (pH 7.5), 10 mM MgCl2, 1 mM EGTA, 0.01% BRIJ-35, 2 mM MnCl2, 1 mM DTT. The detector plate was Black Proxiplate 384-Plus plate (PerkinElmer), the reaction was performed at room temperature for 60 minutes, and the reaction system was 10 μl.
# (§6) The reaction was stopped by adding 5 μl of DV reagent B (1:128) to the kinase reaction solution and incubated at 23° C. for 60 minutes. The Envision instrument was used to read the plate.
# (§7) The data was converted to phosphorylation rate and inhibition rate and the 4 parameter curve fitting (Model 205 in XLFIT5, iDBS) was used to get IC50 data of the compounds.
# VEGFR2 = molecular target: T2, VEGFR2 (Homo sapiens, UniProt P35968); assay: Z'-LYTE in vitro enzyme activity assay, VEGFR2; details: 100 μM ATP, 60 minutes, room temperature; read-out: IC50 detected by Z'-LYTE, VEGFR2
# T2 construct: purchased Life technology
# T2 sequence (P35968 20-1356): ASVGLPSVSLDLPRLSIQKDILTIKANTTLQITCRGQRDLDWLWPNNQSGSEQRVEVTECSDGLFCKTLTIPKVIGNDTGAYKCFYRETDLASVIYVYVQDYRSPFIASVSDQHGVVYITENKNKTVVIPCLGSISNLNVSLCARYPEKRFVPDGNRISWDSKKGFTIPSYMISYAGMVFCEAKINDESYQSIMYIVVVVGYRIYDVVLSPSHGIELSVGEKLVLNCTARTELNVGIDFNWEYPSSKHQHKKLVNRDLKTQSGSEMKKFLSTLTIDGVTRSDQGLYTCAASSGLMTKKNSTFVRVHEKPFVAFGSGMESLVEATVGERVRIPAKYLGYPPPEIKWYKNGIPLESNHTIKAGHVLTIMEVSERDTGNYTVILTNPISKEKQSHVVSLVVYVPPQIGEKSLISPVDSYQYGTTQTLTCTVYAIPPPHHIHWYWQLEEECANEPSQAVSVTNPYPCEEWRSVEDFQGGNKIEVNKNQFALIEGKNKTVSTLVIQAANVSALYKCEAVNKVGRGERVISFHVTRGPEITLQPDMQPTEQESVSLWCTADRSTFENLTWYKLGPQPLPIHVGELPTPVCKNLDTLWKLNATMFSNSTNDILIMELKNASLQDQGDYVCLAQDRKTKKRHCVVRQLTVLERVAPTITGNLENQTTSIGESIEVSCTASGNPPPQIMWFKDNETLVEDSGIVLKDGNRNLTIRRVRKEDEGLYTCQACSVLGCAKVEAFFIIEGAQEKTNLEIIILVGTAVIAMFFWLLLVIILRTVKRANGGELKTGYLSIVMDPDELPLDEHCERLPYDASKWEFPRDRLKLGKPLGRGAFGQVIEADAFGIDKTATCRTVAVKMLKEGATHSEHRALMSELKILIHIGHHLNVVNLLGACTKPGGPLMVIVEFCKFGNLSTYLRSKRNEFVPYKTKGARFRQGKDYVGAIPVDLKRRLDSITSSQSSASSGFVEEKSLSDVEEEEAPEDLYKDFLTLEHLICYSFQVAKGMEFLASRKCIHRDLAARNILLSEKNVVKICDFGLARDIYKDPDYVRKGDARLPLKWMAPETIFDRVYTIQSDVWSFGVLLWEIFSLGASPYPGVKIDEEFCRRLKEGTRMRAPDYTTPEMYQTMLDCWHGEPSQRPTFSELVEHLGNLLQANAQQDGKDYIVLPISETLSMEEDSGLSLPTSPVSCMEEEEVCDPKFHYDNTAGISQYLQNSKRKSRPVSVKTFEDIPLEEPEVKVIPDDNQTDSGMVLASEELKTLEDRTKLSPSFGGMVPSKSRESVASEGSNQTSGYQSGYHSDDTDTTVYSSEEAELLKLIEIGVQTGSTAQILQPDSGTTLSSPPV
# Experimental: as §1, §2, §3, §4
# 3 nM VEGFR2 protein kinase, 2 μM Tyr1 peptide, 100 μM ATP, 50 mM HEPES (pH 7.5), 10 mM MgCl2, 1 mM EGTA, 0.01% BRIJ-35. The detector plate was Black Proxiplate 384-Plus plate (PerkinElmer), the reaction was performed at room temperature for 60 minutes, and the reaction system was 10 μl.
# as §6, §7
# FGFR1 = molecular target: T3, FGFR1 (Homo sapiens, UniProt P11362); assay: Z'-LYTE in vitro enzyme activity assay, FGFR1; details: 25 μM ATP, 60 minutes, room temperature; read-out: IC50 detected by Z'-LYTE, FGFR1
# T3 construct: purchased Life technology
# T3 sequence (P11362 22-822): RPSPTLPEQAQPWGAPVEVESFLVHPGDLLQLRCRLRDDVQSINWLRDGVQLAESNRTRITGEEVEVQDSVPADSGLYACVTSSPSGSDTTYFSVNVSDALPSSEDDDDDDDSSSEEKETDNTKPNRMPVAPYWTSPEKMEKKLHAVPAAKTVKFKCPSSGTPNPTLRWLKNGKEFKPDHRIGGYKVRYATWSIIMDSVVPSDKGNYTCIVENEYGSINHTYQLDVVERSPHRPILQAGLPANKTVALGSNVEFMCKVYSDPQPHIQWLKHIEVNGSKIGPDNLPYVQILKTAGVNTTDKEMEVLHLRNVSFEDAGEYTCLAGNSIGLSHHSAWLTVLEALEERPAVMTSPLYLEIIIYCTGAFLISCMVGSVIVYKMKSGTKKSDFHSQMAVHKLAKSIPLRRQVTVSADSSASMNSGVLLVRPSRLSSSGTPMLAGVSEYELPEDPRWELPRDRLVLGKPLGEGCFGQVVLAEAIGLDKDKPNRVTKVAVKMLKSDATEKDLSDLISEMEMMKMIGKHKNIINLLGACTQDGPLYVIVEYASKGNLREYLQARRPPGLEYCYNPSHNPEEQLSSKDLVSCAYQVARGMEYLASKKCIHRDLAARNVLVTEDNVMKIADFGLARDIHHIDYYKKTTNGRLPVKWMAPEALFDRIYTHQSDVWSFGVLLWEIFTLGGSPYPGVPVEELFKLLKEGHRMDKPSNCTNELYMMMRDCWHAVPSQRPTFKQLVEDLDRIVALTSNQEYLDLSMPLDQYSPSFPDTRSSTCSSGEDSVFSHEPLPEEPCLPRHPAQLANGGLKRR
# Experimental: as §1, §2, §3, §4
# as §5, with “1” for “40”, “FGFR1” for “PDGFRB”, “25” for “100”
# as §6, §7
# T1 sequence (P09619 33-1106): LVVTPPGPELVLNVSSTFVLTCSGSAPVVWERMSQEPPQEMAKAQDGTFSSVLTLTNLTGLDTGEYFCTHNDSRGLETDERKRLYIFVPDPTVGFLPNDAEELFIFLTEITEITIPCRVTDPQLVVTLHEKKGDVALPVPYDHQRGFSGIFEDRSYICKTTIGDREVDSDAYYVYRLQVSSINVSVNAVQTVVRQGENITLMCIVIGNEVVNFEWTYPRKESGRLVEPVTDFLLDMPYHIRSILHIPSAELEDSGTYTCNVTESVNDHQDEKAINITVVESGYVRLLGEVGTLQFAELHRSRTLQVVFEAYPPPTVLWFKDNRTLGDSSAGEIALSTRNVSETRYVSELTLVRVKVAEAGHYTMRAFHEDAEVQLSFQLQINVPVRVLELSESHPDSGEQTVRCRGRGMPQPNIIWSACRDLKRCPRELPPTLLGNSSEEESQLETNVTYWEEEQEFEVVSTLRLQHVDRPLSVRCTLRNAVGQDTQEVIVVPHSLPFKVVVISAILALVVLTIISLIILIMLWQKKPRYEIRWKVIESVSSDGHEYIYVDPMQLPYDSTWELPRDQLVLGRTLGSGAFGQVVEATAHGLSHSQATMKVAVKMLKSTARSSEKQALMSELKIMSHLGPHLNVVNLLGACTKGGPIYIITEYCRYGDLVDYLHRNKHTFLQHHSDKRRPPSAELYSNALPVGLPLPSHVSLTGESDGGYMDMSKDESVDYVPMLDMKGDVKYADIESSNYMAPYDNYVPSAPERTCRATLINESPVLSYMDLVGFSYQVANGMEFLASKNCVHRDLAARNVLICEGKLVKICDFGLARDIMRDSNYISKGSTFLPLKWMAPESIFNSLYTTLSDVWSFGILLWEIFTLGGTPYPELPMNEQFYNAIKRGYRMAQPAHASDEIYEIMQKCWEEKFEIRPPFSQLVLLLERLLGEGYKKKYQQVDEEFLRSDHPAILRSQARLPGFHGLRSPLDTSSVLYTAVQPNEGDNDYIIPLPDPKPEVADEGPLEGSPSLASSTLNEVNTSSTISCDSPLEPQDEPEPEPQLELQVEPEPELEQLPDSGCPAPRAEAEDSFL
Compound,IC50 (PDGFRB),IC50 (VEGFR2),IC50 (FGFR1)
COc1cc2nccc(Oc3ccc(NC(=S)N4CC[C@H](O)C4)c(Cl)c3)c2cc1C(N)=O [Example 74],200 to 1000 nM,50 to 200 nM,200 to 1000 nM
COc1cc2nccc(Oc3ccc(NC(=S)NC4(C#N)CC4)c(Cl)c3)c2cc1C(N)=O [Example 75],200 to 1000 nM,200 to 1000 nM,200 to 1000 nM
COc1cc2nccc(Oc3ccc(NC(=S)NC4(C(F)(F)F)CC4)c(Cl)c3)c2cc1C(N)=O [Example 76],200 to 1000 nM,200 to 1000 nM,200 to 1000 nM
COc1cc2nccc(Oc3cc(Cl)c(NC(=S)NC4CC4)cc3F)c2cc1C(N)=O [Example 77],50 to 200 nM,< 50 nM,200 to 1000 nM
COc1cc2nccc(Oc3ccc(NC(=S)NC4CC4)c(Cl)c3)c2cc1C#N [Example 80],200 to 1000 nM,50 to 200 nM,200 to 1000 nM
COc1cc2nccc(Oc3ccc(N4C(=O)CN(C)C4=S)c(Cl)c3)c2cc1C(N)=O [Example 81],50 to 200 nM,200 to 1000 nM,200 to 1000 nM
COc1cc2nccc(Oc3ccc(N4CC(=O)N(C)C4=S)c(Cl)c3)c2cc1C(N)=O [Example 82],50 to 200 nM,200 to 1000 nM,200 to 1000 nM
COc1cc2nccc(Oc3cc(F)c(NC(=S)NC4CC4)c(F)c3)c2cc1C(N)=O [Example 83],50 to 200 nM,50 to 200 nM,200 to 1000 nM
COc1cc2ncc(Cl)c(Oc3ccc(NC(=S)NC4CC4)c(Cl)c3)c2cc1C(N)=O [Example 84],200 to 1000 nM,200 to 1000 nM,200 to 1000 nM
COc1cc2nccc(Oc3ccc(NC(=S)N4CC(C)(O)C4)c(Cl)c3)c2cc1C(N)=O [Example 85],200 to 1000 nM,200 to 1000 nM,200 to 1000 nM
COc1cc2ncc(Cl)c(Oc3ccc(NC(=S)N4CCCC4)c(Cl)c3)c2cc1C(N)=O [Example 88],200 to 1000 nM,200 to 1000 nM,200 to 1000 nM
COc1cc2ncc(Cl)c(Oc3ccc(NC(=S)N4CC(F)(F)C4)c(Cl)c3)c2cc1C(N)=O [Example 89],200 to 1000 nM,200 to 1000 nM,200 to 1000 nM
COc1cc2nccc(Oc3cc(F)c(NC(=S)N4CC(F)(F)C4)c(F)c3)c2cc1C(N)=O [Example 90],200 to 1000 nM,200 to 1000 nM,50 to 200 nM
COc1cc2nccc(Oc3cc(F)c(NC(=S)N4CCCC4)c(F)c3)c2cc1C(N)=O [Example 91],200 to 1000 nM,50 to 200 nM,200 to 1000 nM
C#CCNC(=S)Nc1ccc(Oc2ccnc3cc(OC)c(C(N)=O)cc23)cc1Cl [Example 92],50 to 200 nM,50 to 200 nM,200 to 1000 nM
COc1cc2nccc(Oc3ccc(NC(=S)NC4CCOC4=O)c(Cl)c3)c2cc1C(N)=O (stereo not drawn) [Example 93],200 to 1000 nM,200 to 1000 nM,200 to 1000 nM
COc1cc2nccc(Oc3ccc(NC(=S)NC4CCNC4=O)c(Cl)c3)c2cc1C(N)=O (stereo not drawn) [Example 94],200 to 1000 nM,200 to 1000 nM,200 to 1000 nM
COc1cc2nccc(Oc3ccc(NC(=S)N4CC(F)(F)C4)cc3F)c2cc1C(N)=O [Example 101],50 to 200 nM,200 to 1000 nM,200 to 1000 nM
COC[C@@H]1CCCN1NC(=S)Nc1ccc(Oc2ccnc3cc(OC)c(C(N)=O)cc23)c(F)c1Cl [Example 105],200 to 1000 nM,200 to 1000 nM,200 to 1000 nM
COc1cc2nccc(Oc3ccc(NC(=S)N4CC[C@H](O)C4)c(Cl)c3F)c2cc1C(N)=O [Example 106],200 to 1000 nM,< 50 nM,50 to 200 nM
COc1cc2nccc(Oc3ccc(NC(=S)N4CC[C@@H](F)C4)c(Cl)c3F)c2cc1C(N)=O [Example 108],200 to 1000 nM,50 to 200 nM,50 to 200 nM
COc1cc2nccc(Oc3ccc(NC(=S)N4CC[C@@H](O)C4)c(Cl)c3F)c2cc1C(N)=O [Example 111],200 to 1000 nM,50 to 200 nM,50 to 200 nM
